Literature values in US20240316075A1, “METHODS FOR TREATMENT OF PAIN WITH CANNABINOIDS” (ANANDA SCIENTIFIC, INC, priority 2021, published 2024).

Columns and labels:
[1] = rats, oral, 120 mg/kg dose
CB2 receptors = CB2 receptors (Homo sapiens, UniProt P34972)
[2] = doses ranging from 10 mg to 6000 mg, single and multiple doses

Sequence of CB2 receptors (P34972 whole entry): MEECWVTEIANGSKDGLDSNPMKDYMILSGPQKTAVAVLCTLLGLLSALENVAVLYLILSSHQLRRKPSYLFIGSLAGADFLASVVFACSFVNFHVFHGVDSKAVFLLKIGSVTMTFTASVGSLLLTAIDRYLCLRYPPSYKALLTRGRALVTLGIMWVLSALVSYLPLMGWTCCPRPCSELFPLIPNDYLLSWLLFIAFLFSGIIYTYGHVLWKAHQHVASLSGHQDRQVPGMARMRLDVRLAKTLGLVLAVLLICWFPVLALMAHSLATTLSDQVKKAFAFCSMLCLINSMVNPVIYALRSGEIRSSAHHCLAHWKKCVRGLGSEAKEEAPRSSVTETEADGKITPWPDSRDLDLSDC

Which T½ [1] does the source give for `C=C(C)[C@@H]1CCC(C)=C[C@H]1c1c(O)cc(CCCCC)cc1O` [CBD, 2-(1R,6R)-3-methyl-6-prop-1-en-2-ylcyclohex-2-en-1-yl-5-pentylbenzene-1,3-diol] here?
Its T½ is 4 to 5 h.

What about the “Affinity for CB2 receptors” value (CB2 receptors) of the same compound?
The value was “low affinity”.

And the Safety finding [2]?
The Safety finding was “safe”.
